Tests used:
[1] = test system: human stem cell derived neurons; assay: Cell viability of human stem cell derived neurons treated with multi-component formulations (Hoechst/propidium iodide, ArrayScan VTI); type: cell-based
Protocol: Cryopreserved human stem cell derived neurons obtained from PhoenixSongs Biologicals were thawed and plated at a density of 12000 cells per well in a 384-well PDL/laminin coated plate. The neurons were maintained in a humidified environment at 37° C. with 5% CO2 for six days with periodic media changes before experimental procedures were performed. […] Cells were dosed in triplicate with 10-point dose response curves to determine if there was any protective effect (improved survival of cells) or toxicity with the test compounds versus the untreated cells. A positive control (chlorpromazine) was also used to assess cytotoxicity response in these cells. After a three-day incubation with test compositions, the cells were stained with Hoechst and propidium iodide and read on an ArrayScan VTI to determine cell viability. Results were normalized to vehicle and graphed using GraphPad Prism. […]

primary chicken neurons = assay: MTT cell viability assay in primary chicken neurons; type: cell-based; settings: for concentration above which cell viability declined: compared to vehicle control, FIG. 5, FIG. 6; for Cell viability, Mean: no MSM nor FDP, 48 h
Protocol: Fertilized chicken eggs were stored under turning at 37.8° C. and 55% humidity until embryonic day eight. Embryos were transferred to a plastic dish and decapitated. Both hemispheres were removed, collected and cleaned from any loose tissue. Hemispheres were mechanically dissociated and 4.8×10^4 cells per well (96-well plates) were seeded in a volume of 160 μL. The cell culture medium consisted of Dubelcco's Modified Eagle's Medium with […], 5% Nu Serum, 0.01% gentamycin and 2 mM L-glutamine. Cultures were maintained at 37° C., 95% humidity and 5% CO2.
Test compositions and vehicle controls were applied to chicken neurons at day-in-vitro 8 for 48 h. On day-in-vitro 10 the viability of neurons was determined according to MTT cell viability assay using a plate reader (570 nm). That assay allows the measurement of the mitochondrial dehydrogenase activity, which reduces yellow MTT to dark blue formazan crystals. Since this reaction is catalyzed in living cells only, this assay is used for the determination of cell viability. MTT solution was added to each well in a final concentration of 0.5 mg/mL. After two hours the MTT-containing medium is aspired. Cells were lysed in 3% SDS and the formazan crystals were dissolved in isopropanol/HCl. Optical density was measured with a plate reader at 570 nm. Cell survival rage was expressed as optical density (OS). Values were calculated as percent of control values (vehicle control, which is medium).
Using the same protocol as in Example 2, primary chicken neurons were treated with varying concentrations of methylsulfonylmethane and/or fructose 1,6-diphosphate. Cell viability was determined with the MTT assay.
Using the protocol of Example 2, a formulation containing methylsulfonylmethane (0.1 μM), D-fructose 1,6-diphosphate trisodium salt hydrate (1 μM), and rutin (0.001 μM) was tested for cell viability in primary chicken neurons. Vehicle control (medium) and methylsulfonylmethane with fructose 1,6-diphosphate compositions were also tested. The results appear in FIG. 12.

CN(C)CCCN1c2ccccc2Sc2ccc(Cl)cc21 [Chlorpromazine, chlorpromazine]
IC50 ([1]; Homo sapiens, Neuron, 72 h, three-day incubation, formulations in medium with MSM 0.1 μM and FDP 1 μM, chlorpromazine without MSM and FDP, read-out: IC50 for Cell Loss): 3.8 µM
neuron cell toxicity / safety (in words) ([1]; at comparable concentrations): relatively high neuron cell toxicity

O=C(COP(=O)(O)O)[C@@H](O)[C@H](O)[C@H](O)COP(=O)(O)O [FDP, fructose 1,6-diphosphate]
concentration above which cell viability declined (primary chicken neurons): above 0.1 mM

CS(C)(=O)=O [MSM, methylsulfonylmethane]
concentration above which cell viability declined (primary chicken neurons): above 5 mM

C[C@@H]1O[C@@H](OC[C@H]2O[C@@H](Oc3c(-c4ccc(O)c(O)c4)oc4cc(O)cc(O)c4c3=O)[C@H](O)[C@@H](O)[C@@H]2O)[C@H](O)[C@H](O)[C@H]1O [Rutin, quercetin-3-O-rutinoside]
Cell viability, Mean (primary chicken neurons; rutin 0.001 (μM), vehicle alone): 96.7% of control
Cell viability, Mean (primary chicken neurons; rutin 0.01, vehicle alone): 99.7% of control
Cell viability, Mean (primary chicken neurons; rutin 0.1, vehicle alone): 98.1% of control
Cell viability, Mean (primary chicken neurons; rutin 1, vehicle alone): 97.7% of control
Cell viability, Mean (primary chicken neurons; rutin 10, vehicle alone): 100.2% of control

From patent US10183053B1, “Multi-component formulations” (priority 2017, dated 2019)
